Results from ChEMBL document CHEMBL1255413, “Proteus mirabilis pmrI, an RppA-regulated gene necessary for polymyxin B resistance, biofilm formation, and urothelial cell invasion” (2010).
Values after ≈ are worked out from the molar mass of the structure shown.

Assays:
Proteus mirabilis [1] = experiment: Antimicrobial activity against PpmrI knockout mutant Proteus mirabilis dIp after 16 to 18 hrs by broth microdilution method; type: functional
Proteus mirabilis [2] = experiment: Antimicrobial activity against wild type Proteus mirabilis N2 […] after 16 to 18 hrs by broth microdilution method; type: functional
Proteus mirabilis [3] = experiment: Antimicrobial activity against PpmrI knockout mutant Proteus mirabilis dIpc complemented with PPmrI gene after 16 to 18 hrs by broth microdilution method; type: functional
Proteus mirabilis [4] = experiment: Antimicrobial activity against Proteus mirabilis I2 mutant after 16 to 18 hrs by broth microdilution method; type: functional, organism-based

Row | Compound | MIC (Proteus mirabilis [1]) | MIC (Proteus mirabilis [2]) | MIC (Proteus mirabilis [3]) | MIC (Proteus mirabilis [4])
1 | C[C@@H](O)[C@H]1C(=O)N2C(C(=O)O)=C(SCCNC=N)C[C@H]12 [IMIPENEM ANHYDROUS] | 0.25 µg/mL (≈ 0.835 µM) | 2 µg/mL (≈ 6.68 µM) | 2 µg/mL (≈ 6.68 µM) | 
2 | CN(C)[C@@H]1C(O)=C(C(N)=O)C(=O)[C@@]2(O)C(O)=C3C(=O)c4c(O)cccc4[C@@](C)(O)[C@H]3C[C@@H]12 [TETRACYCLINE] | 32 µg/mL (≈ 72 µM) | 32 µg/mL (≈ 72 µM) | 32 µg/mL (≈ 72 µM) | 
3 | CC1(C)S[C@@H]2[C@H](NC(=O)[C@H](N)c3ccccc3)C(=O)N2[C@H]1C(=O)O [AMPICILLIN] | 16 µg/mL (≈ 45.8 µM) | 16 µg/mL (≈ 45.8 µM) | 16 µg/mL (≈ 45.8 µM) | 
4 | POLYMYXIN B | 4 µg/mL |  |  | 4 µg/mL
5 | GENTAMICIN | 4 µg/mL | 4 µg/mL | 4 µg/mL | 
